The experiment addresses Nicotinamide phosphoribosyltransferase (Homo sapiens, UniProt P43490). The experiment in a line: In Vitro Inhibition Assay.

Our source for the IC50 values is BindingDB's records for doi:10.1016/j.chembiol.2010.05.008 (Kyowa Hakko Kogyo, 2010).

Chain of Nicotinamide phosphoribosyltransferase (P43490 whole entry): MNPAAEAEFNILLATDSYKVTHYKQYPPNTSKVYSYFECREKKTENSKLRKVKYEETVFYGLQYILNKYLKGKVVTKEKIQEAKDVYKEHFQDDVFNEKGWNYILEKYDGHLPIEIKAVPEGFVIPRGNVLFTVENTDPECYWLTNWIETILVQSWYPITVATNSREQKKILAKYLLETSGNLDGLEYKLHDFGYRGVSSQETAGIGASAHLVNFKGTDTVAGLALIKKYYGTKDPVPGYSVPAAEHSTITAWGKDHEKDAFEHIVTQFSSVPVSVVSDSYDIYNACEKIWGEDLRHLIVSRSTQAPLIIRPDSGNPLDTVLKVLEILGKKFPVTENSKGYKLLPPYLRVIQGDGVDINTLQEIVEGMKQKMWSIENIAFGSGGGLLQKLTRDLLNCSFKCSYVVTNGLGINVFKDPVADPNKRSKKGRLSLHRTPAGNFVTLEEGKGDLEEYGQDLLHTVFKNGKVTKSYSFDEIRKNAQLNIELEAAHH

The term IC50 denotes the concentration that gives 50% inhibition. High values mean weaker potency, low ones greater potency. As to `C#CCN(Cc1cc2c(=O)n(C)c(CN3CCN(C)CC3)nc2cc1Cl)c1ccc(C(=O)NCc2cccnc2)cc1`, the midpoint of inhibition, the IC50, lay at 0.23 nM.
The same measure for `C#CCN(Cc1cc2c(=O)n(C)c(CN3CCN(C)CC3)nc2cc1Cl)c1ccc(C(=O)NCc2ccccn2)cc1` [MPI-0482593]: 74 nM.
On to `C#CCN(Cc1cc2c(=O)n(C)c(CN3CCN(CCN)CC3)nc2cc1Cl)c1ccc(C(=O)NCc2ccccn2)cc1` [MPI-0482594], for which half-maximal inhibition (IC50) required 29 nM.
